Results as given in patent US20130079345A1, “[…] ACTIVE DISUBSTITUTED TRIAZINE DERIVATIVES” (BAYER INTELLECTUAL PROPERTY GMBH, priority 2010, published 2013).

How the values were obtained:
CDK7/CyclinH/Mat1 = target: T1, CDK7/CyclinH/Mat1 (Homo sapiens, UniProt P50613); experiment: LanthaScreen Eu Kinase Binding Assay, CDK7; conditions: tracer 236, read-out: Affinity (Kd) CDK7
T1 construct: purchased Carna Biosciences
Description: (§1) This protocol describes how the LanthaScreen Eu Kinase Binding Assay was performed to determine dissociation constants (Kd) of compounds of general formula (I) and CDK/Cyclin complexes. The principle behind this assay is based upon the binding and displacement of an Alexa Fluor 647-labeled tracer, which binds to the active site of kinases. Binding of the tracer to the kinase is detected using a Eu-labeled antibody. Simultaneous binding of both the tracer and antibody to the kinase gives rise to a FRET-signal. Binding of an inhibitor to the kinase competes for binding with the tracer, resulting in a loss of FRET.
(§2) The compounds of general formula (I) summarized in Table 1 were diluted from a 10 mM DMSO stock solution 1:10 in a total volume of 15 μL DMSO. This compound predilution was then serial diluted 1:3 over 8 steps in DMSO and briefly spun down. Each compound solution was now diluted 1:33.33 in kinase buffer (HEPES: 20 mM, pH: 8.0; MgCl2: 10 mM; DTT: 1 mM; Brij-35: 0.01%), mixed thoroughly and spun down. For every sample, 5 μL of the diluted compound were mixed with 5 μL tracer working solution (e.g. 60 nM tracer 236 in kinase buffer for CDK2/Cyclin A) and 5 μL CDK/Cyclin/Anti-GST-AB-working solution (e.g. 15 nM CDK2/Cyclin A, 1:250 dilution of Anti-GST-AB in kinase buffer) in a well of a small volume 384 well plate (Corning Incorporated, Corning, N.Y., USA; order no. 3673). […] For positive controls, in each well 5 μL of DMSO working solution (3% DMSO diluted in kinase buffer) was mixed with 5 μL CDK/Cyclin/Anti-GST-AB-working solution: (e.g. 15 nM CDK2/Cyclin A, 1:250 dilution of Anti-GST-AB in kinase buffer) and 5 μL Tracer working solution (e.g. 60 nM Tracer 236 in kinase buffer for CDK2/Cyclin A). Positive and negative controls were calculated from at least 8 different sample wells. The 384 well plates were mixed in a Teleshaker plate mixer (Beckman Coulter, Brea, Calif., USA) at 2000 rpm for 40 sec, and incubated for 1 h at room temperature before reading. The FRET signal was measured at 340 nm excitation, 665 nm and 615 nm emission (for the kinase tracer and LanthaScreen Eu-AB, respectively) with an Envision spectrophotometer (Perkin Elmer, Waltham, Mass., USA) with 50 μs delay and 300 μs integration time. Kd values were determined from the sigmoidal dose response curves with the software Quattro Workflow (Quattro GmbH, Munich, Germany).

CDK9/Cyclin T1 = target: T2, CDK9/Cyclin T1 (Homo sapiens, UniProt P50750); experiment: LanthaScreen Eu Kinase Binding Assay, CDK9/Cyclin T1; conditions: tracer 236, read-out: Affinity (Kd) CDK9/Cyclin T1
T2 construct: purchased Invitrogen
T2 sequence (P50750 whole entry): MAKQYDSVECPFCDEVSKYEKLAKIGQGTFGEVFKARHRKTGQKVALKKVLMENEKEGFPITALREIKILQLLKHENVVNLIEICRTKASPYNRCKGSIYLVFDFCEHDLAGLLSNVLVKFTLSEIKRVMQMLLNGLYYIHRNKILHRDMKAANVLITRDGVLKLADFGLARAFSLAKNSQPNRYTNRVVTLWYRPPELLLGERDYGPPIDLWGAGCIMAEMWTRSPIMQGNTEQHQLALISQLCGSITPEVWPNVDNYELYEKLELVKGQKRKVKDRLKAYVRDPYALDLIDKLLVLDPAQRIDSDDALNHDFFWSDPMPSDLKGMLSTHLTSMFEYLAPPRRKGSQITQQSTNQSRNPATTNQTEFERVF
T2 sequence (O60563 whole entry partner): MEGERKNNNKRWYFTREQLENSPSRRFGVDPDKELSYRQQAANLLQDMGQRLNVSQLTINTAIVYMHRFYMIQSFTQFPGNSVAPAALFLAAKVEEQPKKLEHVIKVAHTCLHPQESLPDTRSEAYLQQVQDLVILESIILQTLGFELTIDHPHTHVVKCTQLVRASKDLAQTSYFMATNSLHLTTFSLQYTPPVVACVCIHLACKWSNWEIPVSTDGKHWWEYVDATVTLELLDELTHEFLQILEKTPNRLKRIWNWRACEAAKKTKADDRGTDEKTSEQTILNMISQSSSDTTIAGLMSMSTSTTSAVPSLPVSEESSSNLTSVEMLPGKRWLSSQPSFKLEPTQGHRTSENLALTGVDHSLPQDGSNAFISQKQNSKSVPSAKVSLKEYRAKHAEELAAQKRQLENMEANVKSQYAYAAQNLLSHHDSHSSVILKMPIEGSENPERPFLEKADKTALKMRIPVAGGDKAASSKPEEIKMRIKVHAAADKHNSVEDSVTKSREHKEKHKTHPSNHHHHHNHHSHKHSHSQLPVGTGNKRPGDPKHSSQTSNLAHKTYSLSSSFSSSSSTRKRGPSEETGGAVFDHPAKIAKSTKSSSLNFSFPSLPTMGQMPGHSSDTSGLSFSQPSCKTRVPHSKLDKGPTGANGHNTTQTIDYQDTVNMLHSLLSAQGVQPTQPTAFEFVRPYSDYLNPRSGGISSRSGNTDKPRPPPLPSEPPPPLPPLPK
Description: as §1, §2

CDK9/Cyclin K = target: T3, CDK9/Cyclin K (Homo sapiens, UniProt P50750); experiment: LanthaScreen Eu Kinase Binding Assay, CDK9/Cyclin K; conditions: tracer 236, read-out: Affinity (Kd) CDK9/Cyclin K
T3 construct: purchased Invitrogen
T3 sequence (P50750 whole entry): as the sequence (P50750 whole entry) above
T3 sequence (O75909 whole entry partner): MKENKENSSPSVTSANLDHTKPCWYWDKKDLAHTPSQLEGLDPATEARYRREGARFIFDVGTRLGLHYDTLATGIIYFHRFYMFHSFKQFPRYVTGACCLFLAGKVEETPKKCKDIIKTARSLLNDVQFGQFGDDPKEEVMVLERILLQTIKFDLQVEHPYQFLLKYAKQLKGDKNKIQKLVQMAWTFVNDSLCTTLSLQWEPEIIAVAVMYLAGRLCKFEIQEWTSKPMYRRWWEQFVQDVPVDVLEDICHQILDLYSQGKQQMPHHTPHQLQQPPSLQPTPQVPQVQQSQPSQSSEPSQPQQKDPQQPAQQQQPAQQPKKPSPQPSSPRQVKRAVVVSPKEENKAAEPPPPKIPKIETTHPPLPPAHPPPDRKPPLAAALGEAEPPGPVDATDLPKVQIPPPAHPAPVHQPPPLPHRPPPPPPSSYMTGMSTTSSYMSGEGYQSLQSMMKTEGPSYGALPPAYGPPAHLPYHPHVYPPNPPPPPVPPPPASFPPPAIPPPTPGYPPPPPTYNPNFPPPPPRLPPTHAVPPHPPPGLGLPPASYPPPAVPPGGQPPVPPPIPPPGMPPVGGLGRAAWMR
Description: as §1, §2

CDK2/CyclinA = target: T4, CDK2/CyclinA (Homo sapiens, UniProt P24941); experiment: LanthaScreen Eu Kinase Binding Assay, CDK2; conditions: tracer 236, read-out: Affinity (Kd) CDK2
T4 construct: purchased Proqinase
Description: as §1, §2

T1 sequence (P50613 whole entry): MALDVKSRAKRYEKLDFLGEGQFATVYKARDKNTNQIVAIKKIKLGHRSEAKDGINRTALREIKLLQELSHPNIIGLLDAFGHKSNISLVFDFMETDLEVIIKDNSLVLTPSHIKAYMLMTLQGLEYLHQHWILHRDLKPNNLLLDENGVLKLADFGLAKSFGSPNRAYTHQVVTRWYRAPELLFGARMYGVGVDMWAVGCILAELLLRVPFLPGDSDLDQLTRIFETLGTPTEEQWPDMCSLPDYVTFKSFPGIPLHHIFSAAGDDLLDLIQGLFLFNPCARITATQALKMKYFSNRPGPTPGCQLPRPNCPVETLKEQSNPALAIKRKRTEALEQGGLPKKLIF
T1 sequence (P51946 whole entry partner): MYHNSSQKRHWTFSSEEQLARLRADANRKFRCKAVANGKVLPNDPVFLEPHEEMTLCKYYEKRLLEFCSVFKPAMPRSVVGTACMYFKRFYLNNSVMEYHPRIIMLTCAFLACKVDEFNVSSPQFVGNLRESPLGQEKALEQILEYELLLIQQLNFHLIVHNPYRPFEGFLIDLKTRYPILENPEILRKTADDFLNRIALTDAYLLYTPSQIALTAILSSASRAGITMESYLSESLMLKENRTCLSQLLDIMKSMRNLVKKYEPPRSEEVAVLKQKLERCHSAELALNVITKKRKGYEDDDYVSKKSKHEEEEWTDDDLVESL
T1 sequence (P51948 whole entry partner): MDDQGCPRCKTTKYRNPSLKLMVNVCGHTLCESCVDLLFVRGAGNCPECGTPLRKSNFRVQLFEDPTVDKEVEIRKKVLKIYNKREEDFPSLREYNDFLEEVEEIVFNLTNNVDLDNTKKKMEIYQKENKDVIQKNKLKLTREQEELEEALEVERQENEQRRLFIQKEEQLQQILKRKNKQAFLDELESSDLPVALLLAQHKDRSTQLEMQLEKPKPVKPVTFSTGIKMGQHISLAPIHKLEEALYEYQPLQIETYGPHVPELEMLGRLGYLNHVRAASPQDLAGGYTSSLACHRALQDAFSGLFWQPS

SMILES	Kd (CDK7/CyclinH/Mat1) [nM]	Kd (CDK9/Cyclin T1) [nM]	Kd (CDK9/Cyclin K) [nM]	Kd (CDK2/CyclinA) [nM]
COc1cc(F)ccc1-c1ncnc(Nc2cccc(CS(=O)(=O)NCCCCNC(=O)OC(C)(C)C)c2)n1 [Compound Q1, tert-Butyl [4-((3-((4-(4-Fluoro-2-methoxyphenyl)-1,3,5-triazin-2-yl)amino)phenyl)methylsulfonamido)butyl]carbamate]	> 10000	12.9	5	2090
COCc1ccccc1-c1ncnc(Nc2cccc(CS(N)(=O)=O)c2)n1 [Compound B24, 3-[(4-(2-(Methoxymethyl)phenyl)-1,3,5-triazin-2-yl)amino]benzenemethanesulfonamide]	> 10000	907	1110	–
COc1ccccc1-c1ncnc(Nc2ccc3c(c2)N(S(N)(=O)=O)CC3)n1 [Compound F1, 6-[(4-(2-Methoxyphenyl)-1,3,5-triazin-2-yl)amino]-2,3-dihydro-1H-indole-1-sulfonamide]	13400	131	39.7	1100
CCOC(=O)N=S(C)(=O)c1cccc(Nc2ncnc(-c3ccccc3OC)n2)c1 (racemic) [Compound G1, rac-S-[3-((4-(2-Methoxyphenyl)-1,3,5-triazin-2-yl)amino)phenyl]-N-ethoxycarbonyl-S-methyl-sulfoximide]	> 10000	105	87.2	> 10000
COc1ccc(CO)cc1-c1ncnc(Nc2cccc(CS(N)(=O)=O)c2)n1 [Compound B10, 3-[(4-(5-Hydroxymethyl-2-methoxyphenyl)-1,3,5-triazin-2-yl)amino]benzenemethanesulfonamide]	> 10000	309	110	–
COc1ccccc1-c1ncnc(Nc2cccc(NC(C)=O)c2)n1 [Compound M1, N-[3-((4-(2-Methoxyphenyl)-1,3,5-triazin-2-yl)amino)phenyl]acetamide]	> 30000	146	71.2	1450
CC(C)(C)OC(=O)NCCCCOc1ccccc1-c1ncnc(Nc2cccc(CS(N)(=O)=O)c2)n1 [Compound B17, 3-[(4-(2-(4-(tert-Butoxycarbonylamino)butoxy)phenyl)-1,3,5-triazin-2-yl)amino]benzenemethanesulfonamide]	12800	15	6.4	2850
CNCc1ccc(OC)c(-c2ncnc(Nc3cccc(CS(N)(=O)=O)c3)n2)c1 [Compound O1, 3-[(4-(2-Methoxy-5-(methylamino-methyl)phenyl)-1,3,5-triazin-2-yl)amino]benzenemethanesulfonamide]	> 30000	5410	5980	–
COc1c(F)cc(F)cc1-c1ncnc(Nc2cccc(CS(N)(=O)=O)c2)n1 [Compound B5, 3-[(4-(3,5-Difluoro-2-methoxyphenyl)-1,3,5-triazin-2-yl)amino]benzenemethanesulfonamide]	> 10000	835	286	–
COc1cc(C(F)(F)F)ccc1-c1ncnc(Nc2cccc(CS(N)(=O)=O)c2)n1 [Compound B8, 3-[(4-(2-Methoxy-4-trifluoromethyl-phenyl)-1,3,5-triazin-2-yl)amino]benzenemethanesulfonamide]	> 10000	1230	709	–
COc1ccc(C(F)(F)F)cc1-c1ncnc(Nc2cccc(CS(N)(=O)=O)c2)n1 [Compound B9, 3-[(4-(2-Methoxy-5-trifluoromethyl-phenyl)-1,3,5-triazin-2-yl)amino]benzenemethanesulfonamide]	> 10000	398	1590	–
NS(=O)(=O)Cc1cccc(Nc2ncnc(-c3ccccc3CNC3CC3)n2)c1 [Compound B22, 3-[(4-(2-(Cyclopropylamino-methyl)phenyl)-1,3,5-triazin-2-yl)amino]benzenemethanesulfonamide]	–	425	373	–
NCCCCOc1ccccc1-c1ncnc(Nc2cccc(CS(N)(=O)=O)c2)n1 [Compound I1, 3-[(4-(2-(4-Aminobutoxy)phenyl)-1,3,5-triazin-2-yl)amino]benzenemethanesulfonamide]	> 30000	101	52	–
COc1cc(F)ccc1-c1ncnc(Nc2cccc(CS(=O)(=O)NCCCCN)c2)n1 [Compound R1, N-(4-Aminobutyl)-1-[3-((4-(4-fluoro-2-methoxyphenyl)-1,3,5-triazin-2-yl)amino)phenyl]methanesulfonamide]	> 10000	5	5	2920
